{"source": "patent US10150728B2", "about": "“Alkylene derivatives” (Shionogi & Co., Ltd., priority 2013, dated 2018)"}
{"target": "recombinant human ACC2 (Homo sapiens (Human), UniProt O00763)", "sequence (O00763 27-2458)": "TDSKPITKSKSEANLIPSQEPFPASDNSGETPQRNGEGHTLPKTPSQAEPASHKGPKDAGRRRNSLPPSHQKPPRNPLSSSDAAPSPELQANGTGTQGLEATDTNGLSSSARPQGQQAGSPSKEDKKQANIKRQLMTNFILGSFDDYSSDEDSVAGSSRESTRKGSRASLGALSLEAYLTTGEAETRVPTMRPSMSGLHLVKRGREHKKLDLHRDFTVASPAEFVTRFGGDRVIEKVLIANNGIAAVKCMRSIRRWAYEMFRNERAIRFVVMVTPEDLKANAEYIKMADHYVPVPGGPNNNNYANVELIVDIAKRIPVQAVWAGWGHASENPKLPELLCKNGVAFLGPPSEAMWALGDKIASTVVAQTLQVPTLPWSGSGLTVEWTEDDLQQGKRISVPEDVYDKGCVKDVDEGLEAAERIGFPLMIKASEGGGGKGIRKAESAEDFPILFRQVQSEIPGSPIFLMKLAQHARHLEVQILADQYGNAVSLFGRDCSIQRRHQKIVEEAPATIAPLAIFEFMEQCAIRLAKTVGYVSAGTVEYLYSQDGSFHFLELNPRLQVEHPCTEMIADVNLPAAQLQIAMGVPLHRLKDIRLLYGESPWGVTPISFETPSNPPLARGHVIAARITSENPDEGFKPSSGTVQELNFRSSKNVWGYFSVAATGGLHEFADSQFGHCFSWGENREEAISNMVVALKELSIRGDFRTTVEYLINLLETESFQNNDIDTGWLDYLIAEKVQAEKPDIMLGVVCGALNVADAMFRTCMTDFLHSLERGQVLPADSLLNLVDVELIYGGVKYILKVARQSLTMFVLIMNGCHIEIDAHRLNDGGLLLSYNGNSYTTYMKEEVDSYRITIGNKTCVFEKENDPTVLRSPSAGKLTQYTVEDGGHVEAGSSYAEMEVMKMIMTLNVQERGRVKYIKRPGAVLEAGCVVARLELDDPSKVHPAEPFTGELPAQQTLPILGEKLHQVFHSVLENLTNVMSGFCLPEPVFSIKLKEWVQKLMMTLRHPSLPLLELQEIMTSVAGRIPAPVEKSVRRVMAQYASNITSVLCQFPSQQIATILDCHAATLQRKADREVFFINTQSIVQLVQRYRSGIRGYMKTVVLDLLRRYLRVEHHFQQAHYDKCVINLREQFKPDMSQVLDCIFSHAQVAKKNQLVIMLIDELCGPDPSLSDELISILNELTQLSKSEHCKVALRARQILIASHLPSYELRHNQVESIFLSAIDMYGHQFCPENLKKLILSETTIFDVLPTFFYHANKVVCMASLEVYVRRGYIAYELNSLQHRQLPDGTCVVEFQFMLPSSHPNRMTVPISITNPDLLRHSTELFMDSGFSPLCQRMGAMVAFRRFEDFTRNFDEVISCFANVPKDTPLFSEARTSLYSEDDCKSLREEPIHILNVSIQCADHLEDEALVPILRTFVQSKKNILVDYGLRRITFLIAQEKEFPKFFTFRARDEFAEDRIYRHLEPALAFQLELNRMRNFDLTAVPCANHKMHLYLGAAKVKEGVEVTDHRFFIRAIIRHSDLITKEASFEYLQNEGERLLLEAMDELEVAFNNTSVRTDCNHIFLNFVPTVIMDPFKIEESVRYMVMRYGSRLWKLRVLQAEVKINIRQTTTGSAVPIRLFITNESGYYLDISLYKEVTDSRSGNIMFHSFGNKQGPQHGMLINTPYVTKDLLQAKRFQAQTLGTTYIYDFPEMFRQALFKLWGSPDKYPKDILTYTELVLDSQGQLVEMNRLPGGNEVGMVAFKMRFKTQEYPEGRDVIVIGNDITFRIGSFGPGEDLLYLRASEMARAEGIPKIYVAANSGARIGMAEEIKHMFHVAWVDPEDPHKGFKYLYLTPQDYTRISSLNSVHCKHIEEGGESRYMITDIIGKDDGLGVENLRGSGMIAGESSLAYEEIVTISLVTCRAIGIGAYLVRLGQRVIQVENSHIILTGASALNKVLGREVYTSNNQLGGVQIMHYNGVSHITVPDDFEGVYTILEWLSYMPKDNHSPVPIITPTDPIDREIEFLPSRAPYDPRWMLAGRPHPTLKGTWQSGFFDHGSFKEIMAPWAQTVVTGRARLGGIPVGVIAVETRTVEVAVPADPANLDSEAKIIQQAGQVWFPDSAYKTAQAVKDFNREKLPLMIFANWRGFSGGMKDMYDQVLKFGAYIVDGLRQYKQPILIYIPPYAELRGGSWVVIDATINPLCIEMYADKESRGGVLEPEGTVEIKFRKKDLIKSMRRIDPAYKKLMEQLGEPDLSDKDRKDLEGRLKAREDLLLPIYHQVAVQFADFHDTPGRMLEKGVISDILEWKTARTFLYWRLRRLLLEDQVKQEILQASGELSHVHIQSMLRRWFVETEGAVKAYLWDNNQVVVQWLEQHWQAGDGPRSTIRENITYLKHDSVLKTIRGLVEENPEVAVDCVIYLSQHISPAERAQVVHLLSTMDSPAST", "assay": "Measurement of inhibitory activity on human ACC2 (MALDI-TOF MS, acetyl CoA to malonyl CoA conversion)", "assay_type": "biochemical", "settings": "Tables 155-159", "method_in_brief": "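His-tagged human ACC2 (residues 27–2458) from baculovirus-infected Sf-9 cells was preincubated 1 h in pH 7.4 HEPES-KOH buffer with MgCl2, 6-10 mM potassium citrate, glutathione and BSA. Substrate solution held 1 mM ATP, 0.8 mM acetyl CoA and 25-50 mM bicarbonate. After 1–3 h at room temperature, malonyl CoA/(malonyl+acetyl CoA) was read by negative-mode MALDI-TOF MS; citrate, bicarbonate and time varied by enzyme lot.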", "units": {"IC50": "nM"}}
{"smiles": "CC(=O)N[C@@H](C)CO[C@H]1C[C@H](COc2ccc3nc(OC[C@H](C)F)n(C)c3n2)C1", "note": "[Compound I-485]", "IC50": 180}
{"smiles": "CC(=O)N[C@@H](C)CO[C@H]1C[C@H](COc2cc(C)c3nc(OCC4CC4)n(C)c3n2)C1", "note": "[Compound I-486]", "IC50": 724}
{"smiles": "CCOc1nc2ccc(OC[C@H]3C[C@H](OC[C@H](C)NC(C)=O)C3)c(F)c2n1C", "note": "[Compound I-487]", "IC50": 363}
{"smiles": "CCOc1nc2cc(Cl)c(OC[C@H]3C[C@H](OC[C@H](C)NC(C)=O)C3)nc2n1C", "note": "[Compound I-488]", "IC50": 314}
{"smiles": "CC(=O)N[C@@H](C)CO[C@H]1C[C@H](COc2ccc3nc(OCC4CC4)n(C)c3c2)C1", "note": "[Compound I-489]", "IC50": 843}
{"smiles": "CCOc1nc2ccc(OC[C@H]3C[C@H](OC[C@H](C)NC(C)=O)C3)c(Cl)c2n1C", "note": "[Compound I-490]", "IC50": 480}
{"smiles": "CCOc1nc2ccc(O[C@H]3CC[C@H](OC[C@H](C)NC(C)=O)CC3)nc2n1C", "note": "[Compound I-491]", "IC50": 51}
{"smiles": "CCOc1nc2ccc(O[C@H]3CC[C@H](OC[C@H](C)NC(C)=O)CC3)nc2n1CC", "note": "[Compound I-493]", "IC50": 70}
{"smiles": "CC(=O)N[C@@H](C)CO[C@H]1CC[C@H](Oc2ccc3nc(OC(C)C)n(C)c3n2)CC1", "note": "[Compound I-494]", "IC50": 46}
{"smiles": "CC(=O)N[C@@H](C)CO[C@H]1CC[C@H](Oc2ccc3nc(OC4CC4)n(C)c3n2)CC1", "note": "[Compound I-495]", "IC50": 74}
{"smiles": "CC(=O)N[C@@H](C)CO[C@H]1CC[C@H](Oc2ccc3nc(OCC4CC4)n(C)c3n2)CC1", "note": "[Compound I-496]", "IC50": 24}
{"smiles": "CC(=O)N[C@@H](C)CO[C@H]1CC[C@H](Oc2ccc3nc(OC4CC(F)(F)C4)n(C)c3n2)CC1", "note": "[Compound I-497]", "IC50": 15}
{"smiles": "CC(=O)N[C@@H](C)CO[C@H]1CC[C@H](Oc2ccc3nc(OCC(F)(F)F)n(C)c3n2)CC1", "note": "[Compound I-498]", "IC50": 13}
{"smiles": "CC(=O)N[C@@H](C)CO[C@H]1CC[C@H](Oc2ccc3nc(OCC(F)F)n(C)c3n2)CC1", "note": "[Compound I-499]", "IC50": 40}
{"smiles": "CC(=O)N[C@@H](C)CO[C@H]1CC[C@H](Oc2ccc3nc(OCC(C)(F)F)n(C)c3n2)CC1", "note": "[Compound I-500]", "IC50": 21}
{"smiles": "CC(=O)N[C@@H](C)CO[C@H]1CC[C@H](Oc2ccc3nc(OCc4ccccc4)n(C)c3n2)CC1", "note": "[Compound I-501]", "IC50": 9}
{"smiles": "CC(=O)N[C@@H](C)CO[C@H]1CC[C@H](Oc2ccc3nc(OC4(C)CC4)n(C)c3n2)CC1", "note": "[Compound I-502]", "IC50": 62}
{"smiles": "CC(=O)N[C@@H](C)CO[C@H]1CC[C@H](Oc2ccc3nc(OCC4CC4(F)F)n(C)c3n2)CC1", "note": "(stereo partly drawn) [Compound I-503]", "IC50": 24}
{"smiles": "CC(=O)N[C@@H](C)CO[C@H]1CC[C@H](Oc2ccc3nc(OCCC(F)(F)F)n(C)c3n2)CC1", "note": "[Compound I-504]", "IC50": 18}
{"smiles": "CCCOc1nc2ccc(O[C@H]3CC[C@H](OC[C@H](C)NC(C)=O)CC3)nc2n1C", "note": "[Compound I-505]", "IC50": 12}
{"smiles": "CCOc1nc2ccc(O[C@H]3CC[C@H](OC[C@H](C)NC(C)=O)CC3)cc2n1C", "note": "[Compound I-506]", "IC50": 249}
{"smiles": "CCOc1nc2ccc(O[C@H]3CC[C@H](OC[C@H](C)NC(C)=O)CC3)c(F)c2n1C", "note": "[Compound I-507]", "IC50": 132}
{"smiles": "CC(=O)N[C@@H](C)CO[C@H]1CC[C@H](Oc2cc(C)c3nc(Oc4ccc(F)cc4)n(C)c3n2)CC1", "note": "[Compound I-508]", "IC50": 81}
{"smiles": "CC(=O)N[C@@H](C)CO[C@H]1CC[C@H](Oc2cc(C)c3nc(OCC4CC4)n(C)c3n2)CC1", "note": "[Compound I-509]", "IC50": 225}
{"smiles": "CCOc1nc2cc(Cl)c(O[C@H]3CC[C@H](OC[C@H](C)NC(C)=O)CC3)nc2n1C", "note": "[Compound I-510]", "IC50": 28}
{"smiles": "CC(=O)N[C@@H](C)CO[C@H]1CC[C@H](Oc2ccc3nc(OC4CCC(F)(F)CC4)n(C)c3n2)CC1", "note": "[Compound I-511]", "IC50": 22}
{"smiles": "CC(=O)N[C@@H](C)CO[C@H]1CC[C@H](Oc2ccc3nc(CC4CC4)n(C)c3n2)CC1", "note": "[Compound I-512]", "IC50": 110}
{"smiles": "CC(=O)N[C@@H](C)CO[C@H]1CC[C@H](Oc2ccc3nc(C(C)C)n(C)c3n2)CC1", "note": "[Compound I-513]", "IC50": 260}
{"smiles": "CC(=O)N[C@@H](C)CO[C@H]1CC[C@H](Oc2ccc3nc(CCC4CC4)n(C)c3n2)CC1", "note": "[Compound I-514]", "IC50": 32}
{"smiles": "CC(=O)N[C@@H](C)CO[C@H]1CC[C@H](Oc2ccc3nc(CCC(F)(F)F)n(C)c3n2)CC1", "note": "[Compound I-515]", "IC50": 41}
{"smiles": "CCOc1nc2cc(F)c(O[C@H]3CC[C@H](OC[C@H](C)NC(C)=O)CC3)nc2n1C", "note": "[Compound I-516]", "IC50": 27}
{"smiles": "CCCOc1nc2cc(F)c(O[C@H]3CC[C@H](OC[C@H](C)NC(C)=O)CC3)nc2n1C", "note": "[Compound I-517]", "IC50": 14}
{"smiles": "CC(=O)N[C@@H](C)CO[C@H]1CC[C@H](Oc2nc3c(cc2F)nc(OC2CC(F)(F)C2)n3C)CC1", "note": "[Compound I-518]", "IC50": 13}
{"smiles": "CCOc1nc2ccc(OC[C@H]3C[C@H](OC[C@H](C)NC(C)=O)C3)nc2n1C", "note": "[Compound I-519]", "IC50": 170}
{"smiles": "CCOc1nc2ccc(OC[C@H]3C[C@@H](OC[C@H](C)NC(C)=O)C3)nc2n1C", "note": "[Compound I-520]", "IC50": 315}
{"smiles": "CC(=O)N[C@@H](C)CO[C@H]1CC[C@H](Oc2ncc(-c3ncc(F)cn3)cc2F)CC1", "note": "[Compound I-521]", "IC50": 20}
{"smiles": "CC(=O)N[C@@H](C)CO[C@H]1CC[C@H](Oc2ncc(-c3ncc(F)cn3)cc2Cl)CC1", "note": "[Compound I-522]", "IC50": 8}
{"smiles": "CC(=O)N[C@@H](C)CO[C@H]1CC[C@H](Oc2ncc(-c3ncccn3)cc2F)CC1", "note": "[Compound I-523]", "IC50": 105}
{"smiles": "CC(=O)N[C@@H](C)CO[C@H]1CC[C@H](Oc2ncc(-c3ncc(C#N)cn3)cc2F)CC1", "note": "[Compound I-524]", "IC50": 64}
{"smiles": "CC(=O)N[C@@H](C)CO[C@H]1CC[C@H](Oc2ncc(-c3ncc(F)cn3)cc2C#N)CC1", "note": "[Compound I-525]", "IC50": 41}
{"smiles": "CC(=O)N[C@@H](C)CO[C@H]1CC[C@H](Oc2ncc(-c3ncc(Cl)cn3)cc2F)CC1", "note": "[Compound I-526]", "IC50": 13}
{"smiles": "COc1cc(-c2ncc(F)cn2)cnc1O[C@H]1CC[C@H](OC[C@H](C)NC(C)=O)CC1", "note": "[Compound I-527]", "IC50": 158}
{"smiles": "COc1cnc(-c2cnc(O[C@H]3CC[C@H](OC[C@H](C)NC(C)=O)CC3)c(F)c2)nc1", "note": "[Compound I-528]", "IC50": 61}
{"smiles": "CC(=O)N[C@@H](C)CO[C@H]1CC[C@H](Oc2ncc(-c3ncc(C(C)C)cn3)cc2F)CC1", "note": "[Compound I-529]", "IC50": 172}
{"smiles": "CC(=O)N[C@@H](C)CO[C@H]1CC[C@H](Oc2ncc(-c3ncc(C#N)cn3)cc2C#N)CC1", "note": "[Compound I-530]", "IC50": 196}
{"smiles": "CC(=O)N[C@@H](C)CO[C@H]1CC[C@H](Oc2ncc(-c3nccc(C#N)n3)cc2F)CC1", "note": "[Compound I-531]", "IC50": 481}
{"smiles": "CC(=O)N[C@@H](C)CO[C@H]1CC[C@H](Oc2ncc(-c3ncc(F)cn3)cc2C)CC1", "note": "[Compound I-532]", "IC50": 6}
{"smiles": "CCc1cnc(-c2cnc(O[C@H]3CC[C@H](OC[C@H](C)NC(C)=O)CC3)c(F)c2)nc1", "note": "[Compound I-533]", "IC50": 102}
{"smiles": "CC(=O)N[C@@H](C)CO[C@H]1CC[C@H](Oc2ncc(-c3ncc(C)cn3)cc2F)CC1", "note": "[Compound I-534]", "IC50": 67}
{"smiles": "CC(=O)N[C@@H](C)CO[C@H]1CC[C@H](Oc2ncc(-c3ncc(Cl)cn3)cc2C#N)CC1", "note": "[Compound I-535]", "IC50": 30}
{"smiles": "CC(=O)N[C@@H](C)CO[C@H]1CC[C@H](Oc2ncc(-c3ncc(C4CC4)cn3)cc2F)CC1", "note": "[Compound I-536]", "IC50": 28}
{"smiles": "CC(=O)N[C@@H](C)CO[C@H]1CC[C@H](Oc2ncc(-c3ncc(F)cn3)cc2OCc2ccccc2)CC1", "note": "[Compound I-537]", "IC50": 975}
{"smiles": "C[C@@H](CO[C@H]1CC[C@H](Oc2ncc(-c3ncc(F)cn3)cc2F)CC1)NC(N)=O", "note": "[Compound I-538]", "IC50": 71}
{"smiles": "CCOC(=O)c1cc(C(=O)N[C@@H](C)CO[C@H]2CC[C@H](Oc3ncc(-c4ncc(F)cn4)cc3F)CC2)ccn1", "note": "[Compound I-539]", "IC50": 92}
{"smiles": "C[C@@H](CO[C@H]1CC[C@H](Oc2ncc(-c3ncc(F)cn3)cc2F)CC1)NS(C)(=O)=O", "note": "[Compound I-540]", "IC50": 323}
{"smiles": "COC(=O)N[C@@H](C)CO[C@H]1CC[C@H](Oc2ncc(-c3ncc(F)cn3)cc2F)CC1", "note": "[Compound I-541]", "IC50": 130}
{"smiles": "CC(=O)N[C@@H](C)CO[C@H]1CC[C@H](Oc2ncc(-c3ncc(F)cn3)cc2F)CC1", "note": "[Compound I-542]", "IC50": 6}
{"smiles": "CC(=O)N[C@@H](C)CC[C@H]1CC[C@H](Oc2ncc(-c3ncc(C(F)(F)F)cn3)cc2F)CC1", "note": "[Compound I-543]", "IC50": 14}
{"smiles": "CC(=O)N[C@@H](C)CC[C@H]1CC[C@H](Oc2ncc(-c3ncc(Cl)cn3)cc2F)CC1", "note": "[Compound I-544]", "IC50": 4}
{"smiles": "CC(=O)N[C@@H](C)CO[C@H]1CC[C@H](Oc2ncc(-c3ncc(C(F)(F)F)cn3)cc2F)CC1", "note": "[Compound I-545]", "IC50": 46}
{"smiles": "CC(=O)N[C@@H](C)CO[C@H]1CC[C@H](Oc2ncc(-c3ncc(C(F)(F)F)cn3)cc2C#N)CC1", "note": "[Compound I-546]", "IC50": 66}
{"smiles": "CC(=O)N[C@@H](C)CO[C@H]1CC[C@H](Oc2nc3ccc(Br)cc3s2)CC1", "note": "[Compound I-547]", "IC50": 104}
{"smiles": "CC(=O)N[C@@H](C)CO[C@H]1CC[C@H](Oc2ncc3cc(OCC4CC4)ccc3n2)CC1", "note": "[Compound I-548]", "IC50": 124}
{"smiles": "CC(=O)N[C@@H](C)CO[C@H]1CC[C@H](Oc2nc3cc(Br)ccc3s2)CC1", "note": "[Compound I-549]", "IC50": 37}
{"smiles": "CC(=O)N[C@@H](C)CO[C@H]1CC[C@H](Oc2nc3ccc(OCC4CC4)cc3s2)CC1", "note": "[Compound I-550]", "IC50": 21}
{"smiles": "CC(=O)N[C@@H](C)CO[C@H]1CC[C@H](Oc2nc3cnc(OCC(F)F)cc3s2)CC1", "note": "[Compound I-551]", "IC50": 15}
{"smiles": "CC(=O)N[C@@H](C)CO[C@H]1CC[C@H](Oc2nc3cnc(OCC(F)F)c(F)c3s2)CC1", "note": "[Compound I-552]", "IC50": 13}
{"smiles": "CC(=O)N[C@@H](C)CO[C@H]1CC[C@H](Oc2nc3ccc(OCC(F)F)nc3s2)CC1", "note": "[Compound I-553]", "IC50": 196}
{"smiles": "CC(=O)N[C@@H](C)CO[C@H]1CC[C@H](Oc2ncc3cc(OCC(F)F)ccc3n2)CC1", "note": "[Compound I-554]", "IC50": 620}
